In brackets after ≈: the same amount, converted by molar mass.
Experiments:
[1] = test system: Mycobacterium tuberculosis; test: Antimicrobial activity against Mycobacterium tuberculosis H37Rv after 10 days by BACTEC MGIT method; assay type: functional; settings: 240 h
[2] = test system: Pseudomonas aeruginosa; test: Antimicrobial activity against Pseudomonas aeruginosa MTCC 741 after 24 hr by disk diffusion method; assay type: functional; settings: for MIC: Pseudomonas aeruginosa, MTCC 741, 24 h
[3] = test system: Bacillus subtilis; test: Antimicrobial activity against Bacillus subtilis MTCC 619 after 24 hr by disk diffusion method; assay type: functional; settings: for MIC: Bacillus subtilis, MTCC 619, 24 h
[4] = test system: Staphylococcus aureus; test: Antimicrobial activity against Staphylococcus aureus MTCC 96 after 24 hr by disk diffusion method; assay type: functional; settings: for MIC: Staphylococcus aureus, MTCC 96, 24 h
[5] = test system: Escherichia coli; test: Antimicrobial activity against Escherichia coli MTCC 739 after 24 hr by disk diffusion method; assay type: functional; settings: for MIC: Escherichia coli, MTCC 739, 24 h
[6] = test system: Pseudomonas aeruginosa; test: microbe, parasite or virus in culture; settings: MTCC 741, 24 h, read-out: IZ
Description: Antimicrobial activity against Pseudomonas aeruginosa MTCC 741 at 100 ug/disk after 24 hr by disk diffusion method

[7] = test system: Staphylococcus aureus; test: Antimicrobial activity against Staphylococcus aureus MTCC 96 at 100 ug/disc after 24 hr by disk diffusion method; settings: MTCC 96, 24 h, read-out: IZ
[8] = test system: Bacillus subtilis; test: microbe, parasite or virus in culture; settings: MTCC 619, 24 h, read-out: IZ
Description: Antimicrobial activity against Bacillus subtilis MTCC 619 at 100 ug/disk after 24 hr by disk diffusion method

[9] = test system: Escherichia coli; test: microbe, parasite or virus in culture; settings: MTCC 739, 24 h, read-out: IZ
Description: Antimicrobial activity against Escherichia coli MTCC 739 at 100 ug/disk after 24 hr by disk diffusion method

## CC1=NN(c2ccc(Cl)c(Cl)c2)C(=O)C1/N=N/c1n[nH]c2nc3cc4ccccc4cc3cc12 (centres undefined)
[1]
  MIC99: 62.5 µg/mL (≈ 128 µM)
[2]
  inhibition zone (IZ): 21 mm
  MIC: 50 µg/mL (≈ 102 µM)
[3]
  inhibition zone (IZ): 24 mm
  MIC: 20 µg/mL (≈ 41 µM)
[4]
  inhibition zone (IZ): 20 mm
  MIC: 20 µg/mL (≈ 41 µM)
[5]
  inhibition zone (IZ): 20 mm
  MIC: 50 µg/mL (≈ 102 µM)

## CC1=NN(c2cc(Cl)ccc2Cl)C(=O)C1/N=N/c1n[nH]c2nc3cc4ccccc4cc3cc12 (centres undefined)
[1]
  MIC99: 62.5 µg/mL (≈ 128 µM)
[2]
  inhibition zone (IZ): 18 mm
  MIC: 50 µg/mL (≈ 102 µM)
[3]
  inhibition zone (IZ): 24 mm
  MIC: 20 µg/mL (≈ 41 µM)
[4]
  inhibition zone (IZ): 22 mm
  MIC: 20 µg/mL (≈ 41 µM)
[5]
  inhibition zone (IZ): 19 mm
  MIC: 50 µg/mL (≈ 102 µM)

## CC1=NN(c2cc(Cl)c(S(=O)(=O)O)cc2Cl)C(=O)C1/N=N/c1n[nH]c2nc3cc4ccccc4cc3cc12 (centres undefined)
[1]
  MIC99: 500 µg/mL (≈ 880 µM)
[2]
  inhibition zone (IZ): 15 mm
  MIC: 100 µg/mL (≈ 176 µM)
[3]
  inhibition zone (IZ): 20 mm
  MIC: 50 µg/mL (≈ 88 µM)
[4]
  inhibition zone (IZ): 18 mm
  MIC: 50 µg/mL (≈ 88 µM)
[5]
  inhibition zone (IZ): 16 mm
  MIC: 100 µg/mL (≈ 176 µM)

## CC1=NN(c2cc(S(=O)(=O)O)ccc2Cl)C(=O)C1/N=N/c1n[nH]c2nc3cc4ccccc4cc3cc12 (centres undefined)
[1]
  MIC99: 1000 µg/mL (≈ 1870 µM)
[2]
  inhibition zone (IZ): 14 mm
  MIC: 100 µg/mL (≈ 187 µM)
[3]
  inhibition zone (IZ): 14 mm
  MIC: 50 µg/mL (≈ 93.6 µM)
[4]
  inhibition zone (IZ): 18 mm
  MIC: 50 µg/mL (≈ 93.6 µM)
[5]
  inhibition zone (IZ): 18 mm
  MIC: 100 µg/mL (≈ 187 µM)

## CC1=NN(c2ccc(S(=O)(=O)O)cc2)C(=O)C1/N=N/c1n[nH]c2nc3cc4ccccc4cc3cc12 (centres undefined)
[1]
  MIC99: 1000 µg/mL (≈ 2000 µM)
[2]
  inhibition zone (IZ): <10 mm
  MIC: 100 µg/mL (≈ 200 µM)
[3]
  inhibition zone (IZ): 12 mm
  MIC: 100 µg/mL (≈ 200 µM)
[4]
  inhibition zone (IZ): 14 mm
  MIC: 100 µg/mL (≈ 200 µM)
[5]
  inhibition zone (IZ): 10 mm
  MIC: 100 µg/mL (≈ 200 µM)

## CC1=NN(c2cccc(S(=O)(=O)O)c2)C(=O)C1/N=N/c1n[nH]c2nc3cc4ccccc4cc3cc12 (centres undefined)
[1]
  MIC99: 500 µg/mL (≈ 1000 µM)
[2]
  inhibition zone (IZ): <10 mm
  MIC: 100 µg/mL (≈ 200 µM)
[3]
  inhibition zone (IZ): 12 mm
  MIC: 100 µg/mL (≈ 200 µM)
[4]
  inhibition zone (IZ): 11 mm
  MIC: 100 µg/mL (≈ 200 µM)
[5]
  inhibition zone (IZ): 10 mm
  MIC: 100 µg/mL (≈ 200 µM)

## NNC(=O)c1ccncc1 [ISONIAZID]
[1]
  MIC99: 0.2 µg/mL (≈ 1.46 µM)

## CC1=NN(c2cccc(Cl)c2)C(=O)C1/N=N/c1n[nH]c2nc3cc4ccccc4cc3cc12 (centres undefined)
[1]
  MIC99: 250 µg/mL (≈ 551 µM)
[2]
  inhibition zone (IZ): 15 mm
  MIC: 50 µg/mL (≈ 110 µM)
[3]
  inhibition zone (IZ): 18 mm
  MIC: 50 µg/mL (≈ 110 µM)
[4]
  inhibition zone (IZ): 16 mm
  MIC: 50 µg/mL (≈ 110 µM)
[5]
  inhibition zone (IZ): 17 mm
  MIC: 50 µg/mL (≈ 110 µM)

## CC1=NN(c2ccc(S(=O)(=O)O)cc2C)C(=O)C1/N=N/c1n[nH]c2nc3cc4ccccc4cc3cc12 (centres undefined)
[1]
  MIC99: 500 µg/mL (≈ 974 µM)
[2]
  inhibition zone (IZ): 11 mm
  MIC: 100 µg/mL (≈ 195 µM)
[3]
  inhibition zone (IZ): 11 mm
  MIC: 100 µg/mL (≈ 195 µM)
[4]
  inhibition zone (IZ): 12 mm
  MIC: 100 µg/mL (≈ 195 µM)
[5]
  inhibition zone (IZ): 12 mm
  MIC: 100 µg/mL (≈ 195 µM)

## CC1=NN(c2ccccc2Cl)C(=O)C1/N=N/c1n[nH]c2nc3cc4ccccc4cc3cc12 (centres undefined)
[1]
  MIC99: 250 µg/mL (≈ 551 µM)
[2]
  inhibition zone (IZ): 16 mm
  MIC: 50 µg/mL (≈ 110 µM)
[3]
  inhibition zone (IZ): 16 mm
  MIC: 50 µg/mL (≈ 110 µM)
[4]
  inhibition zone (IZ): 16 mm
  MIC: 50 µg/mL (≈ 110 µM)
[5]
  inhibition zone (IZ): 16 mm
  MIC: 50 µg/mL (≈ 110 µM)

## CC1=NN(c2ccc(C)cc2)C(=O)C1/N=N/c1n[nH]c2nc3cc4ccccc4cc3cc12 (centres undefined)
[1]
  MIC99: 125 µg/mL (≈ 288 µM)
[2]
  inhibition zone (IZ): 14 mm
  MIC: 100 µg/mL (≈ 231 µM)
[3]
  inhibition zone (IZ): 16 mm
  MIC: 50 µg/mL (≈ 115 µM)
[4]
  inhibition zone (IZ): 14 mm
  MIC: 50 µg/mL (≈ 115 µM)
[5]
  inhibition zone (IZ): 12 mm
  MIC: 100 µg/mL (≈ 231 µM)

## O=C(O)c1cn(C2CC2)c2cc(N3CCNCC3)c(F)cc2c1=O [CIPROFLOXACIN]
[6]
  zone of inhibition at 100 µg/disc: 31 mm
[7]
  zone of inhibition at 100 µg/disc: 32 mm
[2]
  MIC: ≤ 1 µg/mL
[3]
  MIC: ≤ 1 µg/mL
[8]
  zone of inhibition at 100 µg/disc: 33 mm
[4]
  MIC: ≤ 1 µg/mL
[9]
  zone of inhibition at 100 µg/disc: 30 mm
[5]
  MIC: ≤ 1 µg/mL

Source: ChEMBL document CHEMBL3045500, “Antituberculosis and antibacterial evaluations of some novel phenyl pyrazolone-substituted 1h-benzo[g]pyrazolo[3,4-b]quinoline-3-ylamine derivatives” (2012)
